# Read-outs that look alike come from different tables or passages of the source.
# What was measured:
# [1] = system: Venturia inaequalis; experiment: In vivo fungicidal activity, Apple Scab (AS); note: ranges in brackets are in %
# [2] = system: Botrytis cinera; experiment: In vivo fungicidal activity, Pepper Botrytis (PB); note: ranges in brackets are in %
# [3] = system: Pyricularia grisea f. sp. oryzae; type: in vivo; settings: Rice Blast
# [4] = system: Alternara solani; experiment: In vivo fungicidal activity, Tomato early blight (TEB); note: ranges in brackets are in %
# [5] = system: Blumeria graminis; experiment: In vivo fungicidal activity, Wheat powdery mildew (WPM); note: ranges in brackets are in %
# [6] = system: Plasmopara viticola; experiment: In vivo fungicidal activity, Grape downy mildew (GDM); note: ranges in brackets are in %
# [7] = system: Pythium ultimum; experiment: In vitro fungicidal activity, Fruit rot (PYTHUL); type: cell-based; design: key: 0: None; 3: slight; 5: moderate; 7: severe; 9: complete; settings: 3-7 days of incubation
# Method: (§1) Test compounds are dissolved in acetone to give concentrations of 25, 10 and 1 ppm and are added to individual cell Walls (24-cell-well plates, Corning), which were previously filled with a suspension of ground plates, Corning), which were previously filled with a suspension of ground fungal mycelium in a chemically defined growth medium. After 3-7 days of incubation, inhibition of […] growth is recorded using the following scale: The data obtained are shown in Table II. [table]
# [8] = system: Rhizoctonia solani; experiment: In vitro fungicidal activity, Rice sheath blight (RHIZSO); type: cell-based; design: key: 0: None; 3: slight; 5: moderate; 7: severe; 9: complete; settings: 3-7 days of incubation
# Method: as §1
# [9] = system: Pseudocercosporella herpotrichoides; experiment: In vitro fungicidal activity, Cereal eye spot (PSDCHE); type: cell-based; design: key: 0: None; 3: slight; 5: moderate; 7: severe; 9: complete; settings: 3-7 days of incubation
# Method: as §1
SMILES,AS disease control rating ([1]; 12.5 ppm spray),AS disease control rating ([1]; 50 ppm spray),AS disease control rating ([1]; 200 ppm spray),PB disease control rating ([2]; 12.5 ppm spray),PB disease control rating ([2]; 50 ppm spray),PB disease control rating ([2]; 200 ppm spray),RB disease control rating ([3]; 12.5 ppm spray),RB disease control rating ([3]; 50 ppm spray),RB disease control rating ([3]; 200 ppm spray),TEB disease control rating ([4]; 12.5 ppm spray),TEB disease control rating ([4]; 50 ppm spray),TEB disease control rating ([4]; 200 ppm spray),WPM disease control rating ([5]; 12.5 ppm spray),WPM disease control rating ([5]; 50 ppm spray),WPM disease control rating ([5]; 200 ppm spray),GDM disease control rating ([6]; 12.5 ppm spray),GDM disease control rating ([6]; 50 ppm spray),GDM disease control rating ([6]; 200 ppm spray),PYTHU inhibition of mycelial growth rating ([7]; 1 ppm),PYTHU inhibition of mycelial growth rating ([7]; 10 ppm),other results
CC(N=c1c(-c2c(F)cccc2F)c(Cl)n(C)c2ncnn12)C(F)(F)F (centres unmarked) [Example 5],0 (0),0 (0),0 (0),0 (0),0 (0),1 (1-14),0 (0),0 (0),0 (0),0 (0),0 (0),0 (0),0 (0),3 (30-44),6 (75-89),6 (75-89),6 (75-89),5 (60-74),,,
CC(N=c1c(-c2ccccc2Cl)c(Cl)n(C)c2ncnn12)C(F)(F)F (centres unmarked) [Example 6],0 (0),0 (0),5 (60-74),0 (0),0 (0),0 (0),0 (0),0 (0),5 (60-74),0 (0),0 (0),0 (0),0 (0),0 (0),5 (60-74),0 (0),0 (0),7 (90-95),0,0,PYTHU inhibition of mycelial growth rating ([7]; 25 ppm): 0; RHIZSO inhibition of mycelial growth rating ([8]; 1 ppm): 0; RHIZSO inhibition of mycelial growth rating ([8]; 10 ppm): 0; RHIZSO inhibition of mycelial growth rating ([8]; 25 ppm): 0; PSDCH inhibition of mycelial growth rating ([9]; 1 ppm): 0; PSDCH inhibition of mycelial growth rating ([9]; 10 ppm): 1; PSDCH inhibition of mycelial growth rating ([9]; 25 ppm): 0
CC(N=c1c(-c2ccc(F)cc2F)c(Cl)n(C)c2ncnn12)C(F)(F)F (centres unmarked) [Example 7],0 (0),0 (0),6 (75-89),2 (15-29),0 (0),0 (0),0 (0),0 (0),4 (45-59),0 (0),0 (0),0 (0),0 (0),4 (45-59),6 (75-89),0 (0),0 (0),8 (96-99),0,0,PYTHU inhibition of mycelial growth rating ([7]; 25 ppm): 0; RHIZSO inhibition of mycelial growth rating ([8]; 1 ppm): 5; RHIZSO inhibition of mycelial growth rating ([8]; 10 ppm): 5; RHIZSO inhibition of mycelial growth rating ([8]; 25 ppm): 5; PSDCH inhibition of mycelial growth rating ([9]; 1 ppm): 0; PSDCH inhibition of mycelial growth rating ([9]; 10 ppm): 1; PSDCH inhibition of mycelial growth rating ([9]; 25 ppm): 0
Cn1c(Cl)c(-c2c(F)cc(F)cc2F)c(=NCC(F)(F)F)n2ncnc12 [Example 8],0 (0),0 (0),5 (60-74),0 (0),0 (0),0 (0),0 (0),0 (0),4 (45-59),2 (15-29),0 (0),0 (0),2 (15-29),4 (45-59),7 (90-95),5 (60-74),4 (45-59),5 (60-74),0,0,PYTHU inhibition of mycelial growth rating ([7]; 25 ppm): 0; RHIZSO inhibition of mycelial growth rating ([8]; 1 ppm): 7; RHIZSO inhibition of mycelial growth rating ([8]; 10 ppm): 7; RHIZSO inhibition of mycelial growth rating ([8]; 25 ppm): 7; PSDCH inhibition of mycelial growth rating ([9]; 1 ppm): 0; PSDCH inhibition of mycelial growth rating ([9]; 10 ppm): 0; PSDCH inhibition of mycelial growth rating ([9]; 25 ppm): 0
COc1cc(F)c(-c2c(Cl)nc3n(C)cnn3c2=NC(C)C(F)(F)F)c(F)c1 (centres unmarked) [Example 13],0 (0),0 (0),0 (0),0 (0),0 (0),0 (0),0 (0),0 (0),0 (0),0 (0),0 (0),0 (0),0 (0),3 (30-44),5 (60-74),0 (0),0 (0),0 (0),,,
CC(N=c1c(-c2c(F)cccc2F)c(Cl)nc2n(C)cnn12)C(F)(F)F (centres unmarked) [Example 14],0 (0),0 (0),6 (75-89),0 (0),0 (0),0 (0),0 (0),0 (0),0 (0),0 (0),0 (0),0 (0),0 (0),0 (0),0 (0),0 (0),4 (45-59),7 (90-95),,,
CC(N=c1c(-c2ccccc2Cl)c(Cl)nc2n(C)cnn12)C(F)(F)F (centres unmarked) [Example 15],0 (0),0 (0),0 (0),0 (0),0 (0),2 (15-29),0 (0),0 (0),0 (0),0 (0),0 (0),0 (0),0 (0),0 (0),3 (30-44),2 (15-29),4 (45-59),6 (75-89),0,0,PYTHU inhibition of mycelial growth rating ([7]; 25 ppm): 0; RHIZSO inhibition of mycelial growth rating ([8]; 1 ppm): 0; RHIZSO inhibition of mycelial growth rating ([8]; 10 ppm): 0; RHIZSO inhibition of mycelial growth rating ([8]; 25 ppm): 3; PSDCH inhibition of mycelial growth rating ([9]; 1 ppm): 0; PSDCH inhibition of mycelial growth rating ([9]; 10 ppm): 0; PSDCH inhibition of mycelial growth rating ([9]; 25 ppm): 0
CC(N=c1c(-c2ccc(F)cc2F)c(Cl)nc2n(C)cnn12)C(F)(F)F (centres unmarked) [Example 16],0 (0),5 (60-74),6 (75-89),0 (0),0 (0),0 (0),0 (0),0 (0),0 (0),0 (0),0 (0),0 (0),0 (0),0 (0),0 (0),,5 (60-74),7 (90-95),0,5,PYTHU inhibition of mycelial growth rating ([7]; 25 ppm): 7; RHIZSO inhibition of mycelial growth rating ([8]; 1 ppm): 5; RHIZSO inhibition of mycelial growth rating ([8]; 10 ppm): 7; RHIZSO inhibition of mycelial growth rating ([8]; 25 ppm): 7; PSDCH inhibition of mycelial growth rating ([9]; 1 ppm): 0; PSDCH inhibition of mycelial growth rating ([9]; 10 ppm): 0; PSDCH inhibition of mycelial growth rating ([9]; 25 ppm): 0
